These results are taken from article PMC9535653 (ACS Omega, 2022).

One test has as its system Truncated C-domain ACE. Nature of the test: fluorimetric ACE activity assay, truncated C-domain. It is filed as biochemical. Conditions: at micromolar concentrations under identical assay conditions.
The next test has as its target N-domain (ACE). The following applies: read-out: Ki, N-domain, ref [20],[21]; cited from earlier work.
In the next test the test system is C-domain of ACE. The following applies: ref [20],[21], cited from earlier work.

Sequence of Truncated C-domain ACE (P12821 643-1222 limits assumed): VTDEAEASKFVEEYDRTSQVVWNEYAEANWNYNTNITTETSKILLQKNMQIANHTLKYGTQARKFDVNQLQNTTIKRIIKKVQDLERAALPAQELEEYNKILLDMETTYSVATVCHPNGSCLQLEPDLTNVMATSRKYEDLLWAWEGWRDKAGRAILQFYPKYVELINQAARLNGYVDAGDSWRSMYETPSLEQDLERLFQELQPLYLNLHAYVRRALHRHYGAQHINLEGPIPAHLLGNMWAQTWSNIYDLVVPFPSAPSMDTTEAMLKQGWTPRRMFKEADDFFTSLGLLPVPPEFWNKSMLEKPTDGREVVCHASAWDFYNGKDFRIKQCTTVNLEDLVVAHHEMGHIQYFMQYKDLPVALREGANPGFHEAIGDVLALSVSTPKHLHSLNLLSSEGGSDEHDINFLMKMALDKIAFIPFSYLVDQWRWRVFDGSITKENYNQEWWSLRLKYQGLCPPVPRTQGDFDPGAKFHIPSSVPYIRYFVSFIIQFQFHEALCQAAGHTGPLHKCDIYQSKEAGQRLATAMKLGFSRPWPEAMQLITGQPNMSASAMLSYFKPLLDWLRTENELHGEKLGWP

For the substance “(2-(((R)-1-(((Benzyloxy)carbonyl)amino)-2-phenylethyl)(hydroxy)phosphoryl)cyclopentane-1-carbonyl)-L-tryptophan [RXPA380]”, in the test on Truncated C-domain ACE, the “Inhibition of C-domain by parent (in words)” value is “completely inhibits the C-domain at micromolar concentrations”. Moreover, the inhibition constant Ki is 10 µM on N-domain (ACE) and 0.003 µM at C-domain of ACE (read-out: Ki, C-domain, ACE C-domain). The “potency and selectivity for C-domain of ACE (in words)” value in the test with C-domain of ACE (C-domain versus N-domain) was “the most potent and selective C domain of ACE”.
